Assays:
[1] = tested on: Miapaca-2 cells; assay: MiaPaca-2 combination cell proliferation assay (1) with cobimetinib, 96-well; type: cell-based; settings: inhibition of cell proliferation, read-out: MiaPaca-2 Combo (1) IC50
Protocol: MiaPaca-2 Combination Cell proliferation Assay (1)
Miapaca-2 cells (catalog #CRL-1420) are obtained from the American Type Culture Collect (ATCC, Manassas, VA). Briefly, cells were grown in DMEM supplemented with 10% characterized fetal bovine serum (Invitrogen, Carlsbad, CA), 2.5% New Zealand sourced horse serum and 1% Penicillin/Streptomycin/L-Glutamine at 37° C., 5% CO2, and 95% humidity. Cells are expanded until reaching 70-95% confluency at which point they are subcultured or harvested for assay use. A serial dilution of test compound was dispensed into multiple 96-well black clear bottom plates in triplicate. A serial dilution of complete growth medium containing cobimetinib was prepared at twice the final concentration and 100 μL was dispensed across the test compound titration in triplicate. Three thousand cells are added per well in 100 μL complete growth medium in each 96-well plate. Plates are incubated for 67-72 hours at 37° C., 5% CO2, and 95% humidity. At the end of the incubation, 40 μL of a 440 μM solution of resazurin (Sigma, St. Louis, MO) in PBS is added to each well of the plate and plates are incubated for an additional 5-7 hours at 37° C., 5% CO2, and 95% humidity. Plates are read on a Synergy2 or equivalent reader (Biotek, Winooski VT) using an excitation of 540 nm and an emission of 600 nm. Drug synergy was assessed via BLISS analysis in the Combenefit software (Cancer Research UK Cambridge Institute, Cambridge, UK). Data is analyzed using Prism software (GraphPad, San Diego, CA) to calculate IC50 values. Shifts in test compound IC50 values are reported from top-constrained combination therapy curves.

[2] = tested on: WM3629 cells; assay: WM3629 cell proliferation assay (2), resazurin, 384-well; type: cell-based; settings: inhibition of cell proliferation, 67-72 hours
Protocol: WM3629 Cell Proliferation Assay (2)
WM3629 cells (#WM3629-01-0001) are obtained from Rockland Immunochemicals Inc (Gilbertsville, PA). Briefly, cells were grown in MCDB 153 medium (Sigma, #M7403, St. Louis, MO) supplemented with 20% Leibovitz's L-15 (ThermoFisher #11415-064, Waltham, MA), 2% heat inactivated fetal bovine serum (ThermoFisher, #A3840001, Waltham, MA), 5 μg/mL Insulin (Bovine Pancreas) (Sigma, #I0516, St. Louis, MO), 1.68 mM Calcium Chloride (Sigma, #C-34006, St. Louis, MO) and 1% Penicillin/Streptomycin/L-Glutamine (ThermoFisher #10378016, Waltham, MA) at 37° C., 5% CO2, and 95% humidity. Cells are expanded until reaching 70-95% confluency at which point they are sub-cultured or harvested for assay use. Using the Beckman Coulter Echo 650, a serial dilution of test compound is dispensed into a 384-well black clear bottom plate in triplicate. One thousand one hundred twenty-five cells are added per well in 50 μL complete growth medium in the 384-well plate. Plates are incubated for 67-72 hours at 37° C., 5% CO2, and 95% humidity. […] Plates are read on a Synergy2 or equivalent reader (Biotek, Winooski VT) using an excitation of 540 nm and an emission of 600 nm. Data is analyzed using Prism software (GraphPad, San Diego, CA) to calculate IC50 values.

SMILES | IC50 [1] | IC50 [2]
Cc1cc(F)c(NC(=O)NCCC2(C)CC2)cc1-c1cc(OCCO)nc(-c2ccnc3[nH]ncc23)c1 [Example 87] | 100 to 500 nM | 
CNC(=O)c1cc(-c2cc(-c3cc(NC(=O)N4CC[C@H](C(F)(F)F)C4)ccc3C)ccn2)ccn1 [Example 215] |  | 500 to 1000 nM
CNC(=O)c1cc(-c2cncc(-c3cc(NC(=O)N4CC[C@H](C(F)(F)F)C4)ccc3C)c2)ccn1 [Example 228] |  | 1000 to 10000 nM

Source: patent US20230357179A1, “RAF KINASE INHIBITORS AND METHODS OF USE THEREOF” (Deciphera Pharmaceuticals, LLC, priority 2021, published 2023)
